According to patent publication US20120135923A1, “Use of Melanocortins to Treat Dyslipidemia” (IPSEN PHARMA, S.A.S., priority 2009, published 2012):
Read-outs that look alike come from different tables or passages of the source. Bridge positions count the residues as written; N and C are the ends. Square brackets hold non-standard residues; d marks the D form. Peptide text beside a SMILES is read from it. d2Nal = N[C@H](Cc1ccc2ccccc2c1)C(=O)O; Bta = N[C@@H](Cc1csc2ccccc12)C(=O)O; Nle = CCCC[C@H](N)C(=O)O; Ava = NCCCCC(=O)O; βAla = NCCC(=O)O

Experiments:
Assay in all cases: cyclic AMP bioassay (ECL) in CHO-K1 cells
Type in all cases: cell-based
hMC1-R = target: T1, hMC1-R (Homo sapiens, UniProt Q01726)
T1 construct: expressed in transfected cells; host or cells: CHO-K1
T1 sequence (Q01726 whole entry): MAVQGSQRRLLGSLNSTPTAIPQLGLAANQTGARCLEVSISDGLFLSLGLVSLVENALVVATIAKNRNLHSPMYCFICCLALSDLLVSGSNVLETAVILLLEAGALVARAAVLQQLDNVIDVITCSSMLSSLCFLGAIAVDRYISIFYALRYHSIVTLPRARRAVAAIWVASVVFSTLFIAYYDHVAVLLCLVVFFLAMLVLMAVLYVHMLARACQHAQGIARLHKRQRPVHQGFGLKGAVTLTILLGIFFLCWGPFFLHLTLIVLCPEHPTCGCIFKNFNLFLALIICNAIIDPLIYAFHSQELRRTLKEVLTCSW

hMC5-R = target: T2, hMC5-R (Homo sapiens, UniProt P33032)
T2 construct: expressed in transfected cells; host or cells: CHO-K1
T2 sequence (P33032 whole entry): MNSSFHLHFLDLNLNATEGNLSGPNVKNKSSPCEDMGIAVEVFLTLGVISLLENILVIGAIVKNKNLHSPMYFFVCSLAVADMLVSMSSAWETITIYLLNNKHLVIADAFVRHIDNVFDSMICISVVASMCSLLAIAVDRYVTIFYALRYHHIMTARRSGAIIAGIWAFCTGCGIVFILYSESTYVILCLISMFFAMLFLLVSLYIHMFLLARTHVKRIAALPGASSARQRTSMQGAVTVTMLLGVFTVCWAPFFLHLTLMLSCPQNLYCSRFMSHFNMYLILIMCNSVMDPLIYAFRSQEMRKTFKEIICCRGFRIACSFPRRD

hMC4-R = target: T3, hMC4-R (Homo sapiens, UniProt P32245)
T3 construct: expressed in transfected cells; host or cells: CHO-K1
T3 sequence (P32245 whole entry): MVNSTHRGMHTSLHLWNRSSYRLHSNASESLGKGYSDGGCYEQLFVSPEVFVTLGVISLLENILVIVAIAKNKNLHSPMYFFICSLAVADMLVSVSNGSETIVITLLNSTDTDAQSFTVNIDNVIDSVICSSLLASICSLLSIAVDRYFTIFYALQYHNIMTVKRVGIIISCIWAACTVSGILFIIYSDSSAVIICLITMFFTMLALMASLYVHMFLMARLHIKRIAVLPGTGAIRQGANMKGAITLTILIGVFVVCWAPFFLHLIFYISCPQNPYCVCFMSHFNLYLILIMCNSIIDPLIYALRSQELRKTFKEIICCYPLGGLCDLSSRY

hMC3-R = target: T4, hMC3-R (Homo sapiens, UniProt P41968)
T4 construct: expressed in transfected cells; host or cells: CHO-K1
T4 sequence (P41968 whole entry): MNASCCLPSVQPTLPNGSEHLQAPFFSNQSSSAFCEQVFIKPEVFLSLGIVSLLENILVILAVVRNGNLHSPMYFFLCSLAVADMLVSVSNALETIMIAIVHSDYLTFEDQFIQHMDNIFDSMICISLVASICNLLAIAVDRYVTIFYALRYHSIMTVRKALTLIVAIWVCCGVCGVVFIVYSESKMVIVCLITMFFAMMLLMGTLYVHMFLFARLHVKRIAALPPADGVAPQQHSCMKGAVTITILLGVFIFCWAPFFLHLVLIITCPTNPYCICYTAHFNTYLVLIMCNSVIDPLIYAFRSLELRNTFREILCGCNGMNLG

[1] = Table 9A/9B, read-out: EC50 hMC1-R
[2] = Table 9A/9B, read-out: EC50 hMC5-R
[3] = Table 9A/9B, read-out: EC50 hMC4-R
[4] = Table 9A/9B, read-out: EC50 hMC3-R

Compound | EC50 (hMC1-R; [1]) [nM] | EC50 (hMC5-R; [2]) [nM] | EC50 (hMC4-R; [3]) [nM] | EC50 (hMC3-R; [4]) [nM] | EC50 (hMC1-R) [nM] | EC50 (hMC5-R) [nM] | Kb (hMC4-R) [nM] | Kb (hMC3-R) [nM] | also measured
CC(=O)N[C@H]1CSSC[C@@H](C(=O)N2CCC[C@H]2C(=O)N2CCC[C@H]2C(=O)N[C@@H](CCCCN)C(=O)N[C@@H](CC(=O)O)C(=O)NCCC(=O)N[C@@H](Cc2ccc(O)cc2)C(=O)NCC(=O)N[C@@H](CCCNC(=N)N)C(=O)N[C@@H](CCCNC(=N)N)C(=O)N[C@@H](CCCCN)C(=O)N[C@@H](CCCNC(=N)N)C(=O)N[C@@H](CCCNC(=N)N)C(=O)N[C@@H](CCC(N)=O)C(=O)N[C@@H](CCCNC(=N)N)C(=O)N[C@@H](CCCNC(=N)N)C(=O)N[C@@H](CCCNC(=N)N)C(N)=O)NC(=O)[C@H](C)NC(=O)[C@H](Cc2csc3ccccc23)NC(=O)[C@H](CCCNC(=N)N)NC(=O)[C@@H](Cc2ccc3ccccc3c2)NC(=O)[C@H](Cc2c[nH]cn2)NC(=O)[C@H](CCC(=O)O)NC1=O |  |  |  |  | 19.8 | 158 | 8.43 | 37.8 | 
CC(=O)N[C@H]1CSSC[C@@H](C(=O)N2CCC[C@H]2C(=O)N2CCC[C@H]2C(=O)N[C@@H](CCCNC(=N)N)C(=O)N[C@@H](CC(=O)O)C(=O)NCCC(=O)N[C@@H](CCCNC(=N)N)C(=O)N[C@@H](CCCNC(=N)N)C(=O)N[C@@H](CCCNC(=N)N)C(=O)N[C@@H](CCCNC(=N)N)C(=O)N[C@@H](CCCNC(=N)N)C(=O)N[C@@H](CCCNC(=N)N)C(=O)N[C@@H](CCC(N)=O)C(=O)N[C@@H](CCCNC(=N)N)C(=O)N[C@@H](CCCNC(=N)N)C(=O)N[C@@H](CCCNC(=N)N)C(N)=O)NC(=O)[C@H](C)NC(=O)[C@H](Cc2csc3ccccc23)NC(=O)[C@H](CCCNC(=N)N)NC(=O)[C@@H](Cc2ccc3ccccc3c2)NC(=O)[C@H](Cc2c[nH]cn2)NC(=O)[C@H](CCC(=O)O)NC1=O (Ac-CEH[d2Nal]R[Bta]ACPPRD[βAla]RRRRRRQRRR-NH2; disulfide 1-8) |  |  |  |  | 86.1 | 2360 | 19.4 | 41.7 | 
CC(=O)N[C@H]1CSSC[C@@H](C(=O)N2CCC[C@H]2C(=O)N2CCC[C@H]2C(=O)N[C@@H](CCCCN)C(=O)N[C@@H](CC(=O)O)C(=O)NCCC(=O)N[C@@H](Cc2ccc(O)cc2)C(=O)NCC(=O)N[C@@H](CCCNC(=N)N)C(=O)N[C@@H](CCCNC(=N)N)C(=O)N[C@@H](CCCNC(=N)N)C(=O)N[C@@H](CCCNC(=N)N)C(=O)N[C@@H](CCCNC(=N)N)C(=O)N[C@@H](CCC(N)=O)C(=O)N[C@@H](CCCNC(=N)N)C(=O)N[C@@H](CCCNC(=N)N)C(=O)N[C@@H](CCCNC(=N)N)C(N)=O)NC(=O)[C@H](C)NC(=O)[C@H](Cc2csc3ccccc23)NC(=O)[C@H](CCCNC(=N)N)NC(=O)[C@@H](Cc2ccc3ccccc3c2)NC(=O)[C@H](Cc2c[nH]cn2)NC(=O)[C@H](CCC(=O)O)NC1=O (Ac-CEH[d2Nal]R[Bta]ACPPKD[βAla]YGRRRRRQRRR-NH2; disulfide 1-8) |  |  |  |  | 114 | 879 | 28.4 | 44.6 | 
CC(=O)N[C@H]1CSSC[C@@H](C(=O)N2CCC[C@H]2C(=O)N2CCC[C@H]2C(=O)N[C@@H](CCCCN)C(=O)N[C@@H](CC(=O)O)C(=O)NCCC(=O)NCC(=O)N[C@@H](CCCNC(=N)N)C(=O)N[C@@H](CCCNC(=N)N)C(=O)N[C@@H](CCCCN)C(=O)N[C@@H](CCCNC(=N)N)C(=O)N[C@@H](CCCNC(=N)N)C(=O)N[C@@H](CCC(N)=O)C(=O)N[C@@H](CCCNC(=N)N)C(=O)N[C@@H](CCCNC(=N)N)C(=O)N[C@@H](CCCNC(=N)N)C(N)=O)NC(=O)[C@H](C)NC(=O)[C@H](Cc2csc3ccccc23)NC(=O)[C@H](CCCNC(=N)N)NC(=O)[C@@H](Cc2ccc3ccccc3c2)NC(=O)[C@H](Cc2c[nH]cn2)NC(=O)[C@H](CCC(=O)O)NC1=O |  |  |  |  | 33.8 | 89.5 | 4.42 | 93.6 | 
N=C(N)NCCC[C@@H]1NC(=O)[C@@H](Cc2ccccc2)NC(=O)[C@H](Cc2c[nH]cn2)NC(=O)[C@H](CCC(=O)O)NC(=O)[C@@H](NC(=O)CN2C(=O)N[C@@H](CCCNC(=N)N)C2=O)CSSC[C@@H](C(N)=O)NC(=O)[C@H](Cc2c[nH]c3ccccc23)NC1=O [Hydantoin(C(O)-(Arg-Gly))-c(Cys-Glu-His-D-Phe-Arg-Trp-Cys)-NH2] |  |  |  |  |  |  |  |  | EC50 (hMC1-R; Table 11, read-out: EC50 hMC1): 8.83 nM; EC50 (hMC5-R; Table 11, read-out: EC50 hMC5): 4010 nM; EC50 (hMC4-R; Table 11, read-out: EC50 hMC4): 0.0979 nM; EC50 (hMC3-R; Table 11, read-out: EC50 hMC3): 7.86 nM
CC(=O)N[C@@H](CCCNC(=N)N)C(=O)N[C@H]1CSSC(C)(C)[C@@H](C(N)=O)NC(=O)[C@H](Cc2c[nH]c3ccccc23)NC(=O)[C@H](CCCNC(=N)N)NC(=O)[C@@H](Cc2ccccc2)NC(=O)[C@H](Cc2c[nH]cn2)NC(=O)[C@@H](C)NC1=O [Ac-Arg-c(Cys-D-Ala-His-D-Phe-Arg-Trp-Pen)-NH2] |  |  |  |  | 48.3 | 10000 |  |  | EC50 (hMC4-R): 0.79 nM; EC50 (hMC3-R): 13.3 nM
CCCC[C@H](NC(C)=O)C(=O)N[C@H]1CC(=O)NCCCC[C@@H](C(N)=O)NC(=O)[C@H](Cc2csc3ccccc23)NC(=O)[C@H](CCCNC(=N)N)NC(=O)[C@@H](Cc2ccccc2)NC(=O)[C@H](Cc2c[nH]cn2)NC(=O)[C@@H](C)NC1=O [Ac-Nle-c(Asp-D-Ala-His-D-Phe-Arg-Bal-Lys)-NH2] (Ac-[Nle]D[dA]H[dF]R[Bta]K-NH2; lactam 2-8) | 0.931 | > 10000 | 1.65 | 3.22 |  |  |  |  | 

The next lines start with results.

EC50 (hMC1-R; [1]) [nM] | EC50 (hMC5-R; [2]) [nM] | EC50 (hMC4-R; [3]) [nM] | EC50 (hMC3-R; [4]) [nM] | Compound | EC50 (hMC1-R) [nM] | EC50 (hMC5-R) [nM] | Kb (hMC4-R) [nM] | Kb (hMC3-R) [nM] | also measured
1.37 | 3.48 | 0.131 | 0.628 | CCCC[C@H](NC(C)=O)C(=O)N[C@H]1CC(=O)NCCCC[C@@H](C(N)=O)NC(=O)CCCNC(=O)[C@H](Cc2c[nH]c3ccccc23)NC(=O)[C@H](CCCNC(=N)N)NC(=O)[C@@H](Cc2ccccc2)NC(=O)[C@H](Cc2c[nH]cn2)NC1=O [Ac-Nle-c(Asp-His-D-Phe-Arg-Trp-Gaba-Lys)-NH2] |  |  |  |  | 
0.76 | 1.73 | 0.0492 | 0.199 | CCCC[C@H](NC(C)=O)C(=O)N[C@H]1CSSC[C@@H](C(N)=O)NC(=O)CCCCNC(=O)[C@H](Cc2c[nH]c3ccccc23)NC(=O)[C@H](CCCNC(=N)N)NC(=O)[C@@H](Cc2ccccc2)NC(=O)[C@H](Cc2c[nH]cn2)NC1=O [Ac-Nle-c(Cys-His-D-Phe-Arg-Trp-Apn-Cys)-NH2] (Ac-[Nle]CH[dF]RW[Ava]C-NH2; disulfide 2-8) |  |  |  |  | 
3.24 | 78.5 | 0.0915 | 0.465 | CCCC[C@H](NC(C)=O)C(=O)N[C@H]1CSSC[C@@H](C(N)=O)NC(=O)[C@H](Cc2c[nH]c3ccccc23)NC(=O)[C@H](CCCNC(=N)N)NC(=O)[C@@H](Cc2ccccc2)NC(=O)[C@H](Cc2c[nH]cn2)NC(=O)[C@@H](CC(C)C)NC1=O [Ac-Nle-c(Cys-D-Leu-His-D-Phe-Arg-Trp-Cys)-NH2] |  |  |  |  | 
2.27 | 415 | 7.24 | 3.32 | CC(=O)N[C@@H](CCC1CCCCC1)C(=O)N[C@H]1CC(=O)NCCCC[C@@H](C(N)=O)NC(=O)CCCNC(=O)[C@H](Cc2c[nH]c3ccccc23)NC(=O)[C@H](CCCNC(=N)N)NC(=O)[C@@H](Cc2ccccc2)NC(=O)[C@H](Cc2c[nH]cn2)NC1=O [Ac-hCha-c(Asp-His-D-Phe-Arg-Trp-Gaba-Lys)-NH2] |  |  |  |  | 
0.31 | 3.1 | 0.018 | 0.27 | CCCC[C@H](N)C(=O)N[C@H]1CSSC[C@@H](C(N)=O)NC(=O)CCCCNC(=O)[C@H](Cc2c[nH]c3ccccc23)NC(=O)[C@H](CCCNC(=N)N)NC(=O)[C@@H](Cc2ccccc2)NC(=O)[C@H](Cc2c[nH]cn2)NC1=O [Nle-c(Cys-His-D-Phe-Arg-Trp-Apn-Cys)-NH2] (H-[Nle]CH[dF]RW[Ava]C-NH2; disulfide 2-8) |  |  |  |  | 
